Data taken from patent US12161647B2, “Treating hearing loss” (Massachusetts Eye and Ear Infirmary, priority 2012, dated 2024).

Assays:
[1] = system: inner ear spheres made from Math1-nGFP mice; assay: Hair cell differentiation from utricular spheres of neonatal Math1-nGFP reporter mice; format: cell-based, mouse; conditions: compared with DAPT, L-685458, MDL28170; normalized to DMSO
Protocol: The utricles and cochleae of 1- to 3-d-postnatal mice of both sexes were dissected, and after careful removal of the nerve trunk and mesenchymal tissues, were trypsinized and dissociated. Dissociated cells were centrifuged, and the pellet was resuspended and filtered through a 70 μm cell strainer (BD Biosciences Discovery Labware) in DMEM/F12 medium with N2/B27 supplement, EGF (20 ng/ml), IGF1 (50 ng/ml), bFGF (10 ng/ml), and heparan sulfate (50 ng/ml) (Sigma). The single cells were cultured in nonadherent Petri dishes (Greiner Bio-One) to initiate clonal growth of spheres (49). Spheres that formed after 2-3 d in culture were passaged every 4-6 d. […]
Cell counting for spheres was performed with MetaMorph software. The cell number was determined from DAPI- or Hoechst-positive nuclei. […] For explants, inner hair cells, outer hair cells, and supporting cells in the outer hair cell region were counted on cochlear whole mounts. […] High-power images of the full-length cochlea or cochlear explant cultures were assembled and analyzed in PhotoShop CS4 (Adobe). ImageJ software (NIH) was used to measure the total length of cochlear whole mounts and the length of individual counted segments. The total number of inner hair cells, outer hair cells, and supporting cells in the outer hair cell region was counted in each of four cochlear segments of 1200-1400 μm (apical, mid-apical, mid-basal, and basal). […]

[2] = system: neonatal organ of Corti explants; assay: Neonatal organ of Corti explant culture, hair cell number; format: cell-based, mouse
Protocol: Cochleae of 3-d-postnatal C57BL/6 or Mos-iCsp3; Pou4f3-Cre double transgenic mice of both sexes were dissected in Hanks solution (Invitrogen). To obtain a flat cochlear surface preparation, the spiral ganglion, Reissner's membrane, and the most basal cochlear segment were removed. Explants were plated onto 4 well plates (Greiner Bio-One) coated with poly-L-ornithine (0.01%, Sigma) and laminin (50 μg/ml, Becton Dickinson). Cochlear explants were cultured in DMEM (Invitrogen) with 10% fetal bovine serum. All cultures were maintained in a 5% CO2/20% O2-humidified incubator (Forma Scientific).
For explants, the organs of Corti were fixed for 15 min with 4% paraformaldehyde in PBS. […] Primary antibodies were detected with secondary antibodies conjugated with Alexa 488 and 647 (Molecular Probes). The samples were stained with rhodamine phalloidin (Invitrogen) for 15 min and viewed by confocal fluorescence microscopy (TCS SP5, Leica).
Cell counting for spheres was performed with MetaMorph software. The cell number was determined from DAPI- or Hoechst-positive nuclei. […] For explants, inner hair cells, outer hair cells, and supporting cells in the outer hair cell region were counted on cochlear whole mounts. […] High-power images of the full-length cochlea or cochlear explant cultures were assembled and analyzed in PhotoShop CS4 (Adobe). […] Density (cells per 100 μm) was then calculated for each segment. […]

Compound: C[C@H](NC(=O)[C@@H](O)c1cc(F)cc(F)c1)C(=O)N[C@@H]1C(=O)N(C)c2ccccc2-c2ccccc21 [LY411575, N-2((2S)-2-(3,5-difluorophenyl)-2-hydroxyethanoyl)-N1-((7S)-5-methyl-6-oxo-6,7-dihydro-5H-dibenzo[b,d]azepin-7-yl)-l-alaninamide]
- potency for hair cell induction (nGFP-positive cells to DAPI-positive cells) among the four γ-secretase inhibitors [1]: highest potency
- increase in number of myosin VIIa-positive cells in the outer hair cell region compared to the control ([2]; LY411575 1 μM, 72 h, p<0.05): 30 cells/100 μm
- number of hair cells in wild-type organ of Corti (Wt) ([2]; apex, mid-apex and mid-base, cultured 3 d): Increased
